Results reported in patent US20250171432A1, “COMPOUNDS AND METHODS OF USE” (Tango Therapeutics, Inc., priority 2022, published 2025).

Tests used:
Type in all cases: cell-based
[1] = system: SDMA (PRMT5 activity) in HAP1 MTAP-intact cell line; assay: SDMA in-cell western assay, HAP1 MTAP-intact; conditions: Homo sapiens, HAP1, 24 h, SDMA in-cell western, HAP1 MTAP-intact cells, 24 hours compound incubation
Protocol: (§1) The SAM-cooperative PRMT5 inhibitor, GSK3326595, was sourced from SelleckChem and maintained as a 10 mM DMSO stock. All test compounds are maintained as 10 mM DMSO stocks
(§2) On Day 0, MTAP-intact or MTAP-deleted cells are seeded in a 384-well plate, and incubated in a humidified, 5% CO2 tissue culture incubator for 16-24 hours. On Day 1, the test compounds are dispensed to wells at defined concentrations using a Tecan D300e digital dispenser (n=4), and the volume of DMSO is normalized to highest class volume. Each plate includes wells dosed with defined concentrations of GSK33226595 as a plate control. The compounds are incubated with cells for 24 hours in a humidified, 5% CO2 tissue culture incubator.
(§3) On Day 2, the compound-treated cells are fixed with a final concentration of 4% formaldehyde. The cells are then washed/permeabilized with 1×PBS+0.1% Triton X-100, and then blocked with 5% goat serum/1×TBS.
(§4) The cells are washed with 1×PBS+0.1% Triton X-100, and then washed again with ddH20. The plates are then imaged using a NIR fluorescent imager (LiCor Odyssey).
(§5) For data analysis, the SDMA signal is normalized to the DRAQ5 signal. Assay background is determined by the signal from wells treated with 1 μM GSK3326595, and subtracted from every well. The data are plotted as % of the DMSO control wells for the MTAP-intact and the MTAP-deleted cell lines independently, and fitted to the 4-parameter logistic (4-PL) Hill equation with maximal effect constrained to 0. The fit was performed using GraphPad Prism or the default IC50 fitting procedure in Dotmatics Studies 5.4 as part of a customized data analysis protocol.

[2] = system: SDMA (PRMT5 activity) in HAP1 MTAP-deleted cell line; assay: SDMA in-cell western assay, HAP1 MTAP-deleted; conditions: for IC50 / IC90: Homo sapiens, SDMA in-cell western, HAP1 MTAP-deleted cells, 24 hours compound incubation; for Hap1 MTAP intact/deleted ratio: ratio of SDMA IC50 in HAP1 MTAP-intact to HAP1 MTAP-deleted cell line
Protocol: as §1, §2, §3, §4, §5

[3] = system: HAP1 MTAP-deleted cell line; assay: Viability assay (CellTiter-Glo), HAP1 MTAP-deleted; conditions: Homo sapiens, 168 h, HAP1 MTAP-deleted cells, 7 days
Protocol: All test compounds are maintained as 10 mM DMSO stocks.
On Day 0, MTAP-intact and MTAP-deleted cells are seeded in a 96-well plate, and incubated in a humidified, 5 or 10% CO2 tissue culture incubator for 16-24 hours. On Day 1, the test compounds are dispensed to wells at defined concentrations using a Tecan D300e digital dispenser (n=3), and the volume of DMSO is normalized to highest class volume (0.2%). The compound-treated plates are incubated for 7 days in a humidified, 5 or 10% CO2 tissue culture incubator.
On Day 7, the plates are removed from the tissue culture incubator and allowed to equilibrate to room temperature. Then either a ½% volume CellTiter-Glo Luminescent Cell Viability Assay reagent (Promega G7572) is added to each well, or the media is removed from every well and a 1:3 dilution of CellTiter-Glo 2.0 Cell Viability Assay reagent (Promega G9241) in 1×PBS is added. Ten minutes after addition, the luminescent signal is detected by an Envision plate reader. The data are plotted as % of the DMSO control wells for the MTAP-intact and the MTAP-deleted cell lines independently, and fitted to the 4-parameter logistic (4-PL) Hill equation with maximal effect constrained to 0. The fit was performed using GraphPad Prism or the default IC50 fitting procedure in Dotmatics Studies 5.4 as part of a customized data analysis protocol.

| Compound | IC50 [1] [nM] | IC50 [2] [nM] | IC90 [2] [nM] | Hap1 MTAP intact/deleted ratio [2] | IC50 [3] [nM] |
| --- | --- | --- | --- | --- | --- |
| CCc1cc(NC(=O)C(=O)N2C[C@@H](C)CC[C@@H]2c2ccc3sc([C@@H]4C[C@@H](C)N(C)C4)nc3c2)cnc1N (mixture of isomers) [Compound 4, N-(6-amino-5-ethyl-3-pyridyl)-2-oxo-2-[(2R,5S)-5-methyl-2-[2-[rac-(3R,5R)-1,5-dimethylpyrrolidin-3-yl]-1,3-benzothiazol-5-yl]-1-piperidyl]acetamide] | > 50 | < 5 | < 75 | A (“A” indicates an IC50 ratio greater than or equal to 30 fold) | < 100 |
| CCc1cc(NC(=O)C(=O)N2C[C@@H](C)CC[C@@H]2c2ccc3sc([C@@H]4CN(C)C[C@H]4C)nc3c2)cnc1N (mixture of isomers) [Compound 10, N-(6-amino-5-ethylpyridin-3-yl)-2-((2R,5S)-2-(2-(rac-(3S,4S)-1,4-dimethylpyrrolidin-3-yl)benzo[d]thiazol-5-yl)-5-methylpiperidin-1-yl)-2-oxoacetamide] | > 50 | < 5 | < 75 | A (“A” indicates an IC50 ratio greater than or equal to 30 fold) | < 100 |
| CCc1cc(NC(=O)C(=O)N2C[C@@H](C)CC[C@@H]2c2ccc3sc(C4CN(C)C(C)(C)C4)nc3c2)cnc1N (mixture of isomers) [Compound 13, N-(6-amino-5-ethylpyridin-3-yl)-2-((2R,5S)-5-methyl-2-(2-(1,5,5-trimethylpyrrolidin-3-yl)benzo[d]thiazol-5-yl)piperidin-1-yl)-2-oxoacetamide] | 5 to 50 | < 5 | < 75 | C (“C” indicates an IC50 ratio of less than 15 fold) | < 100 |
| CCc1cc(NC(=O)C(=O)N2C[C@@H](C)CC[C@@H]2c2ccc3sc([C@@H]4C[C@H](C)N(C)C4)nc3c2)cnc1N (racemic) [Compound 16, N-(6-amino-5-ethyl-3-pyridyl)-2-oxo-2-[(2R,5S)-5-methyl-2-[2-[rac-(3S,5R)-1,5-dimethylpyrrolidin-3-yl]-1,3-benzothiazol-5-yl]-1-piperidyl]acetamide] | > 50 | < 5 | < 75 | A (“A” indicates an IC50 ratio greater than or equal to 30 fold) | < 100 |
| CCc1cc(NC(=O)C(=O)N2C[C@@H](C)CC[C@@H]2c2ccc3sc(C[C@H]4CCN(C)C[C@@H]4C)nc3c2)cnc1N (racemic) [Compound 18, N-(6-amino-5-ethylpyridin-3-yl)-2-((2R,5S)-2-(2-((1,3-dimethylpiperidin-4-yl)methyl)benzo[d]thiazol-5-yl)-5-methylpiperidin-1-yl)-2-oxoacetamide] | 5 to 50 | < 5 | < 75 | A (“A” indicates an IC50 ratio greater than or equal to 30 fold) | < 100 |
| CCc1cc(NC(=O)C(=O)N2C[C@@H](C)CC[C@@H]2c2ccc3sc([C@H]4CN5CC[C@@H]4C5)nc3c2)cnc1N (racemic) [Compound 21, 2-((2R,5S)-2-(2-(1-azabicyclo[2.2.1]heptan-3-yl)benzo[d]thiazol-5-yl)-5-methylpiperidin-1-yl)-N-(6-amino-5-ethylpyridin-3-yl)-2-oxoacetamide] | 5 to 50 | < 5 | < 75 | C (“C” indicates an IC50 ratio of less than 15 fold) | < 100 |
| CCc1cc(NC(=O)C(=O)N2C[C@@H](C)CC[C@@H]2c2cccc(OC3CCN(C)C3)c2)cnc1N (mixture of isomers) [Compound 39, N-(6-amino-5-ethylpyridin-3-yl)-2-((2R,5S)-5-methyl-2-(3-((1-methylpyrrolidin-3-yl)oxy)phenyl)piperidin-1-yl)-2-oxoacetamide] | > 50 | 5 to 50 | 75 to 125 | A (“A” indicates an IC50 ratio greater than or equal to 30 fold) | < 100 |
| COc1ncc(NC(=O)C(=O)N2C[C@@H](C)CC[C@@H]2c2ccc3sc(CC(C)N4CCCC4)nc3c2)cc1C(N)=O (mixture of isomers) [Compound 57, 2-methoxy-5-(2-((2R,5S)-5-methyl-2-(2-(2-(pyrrolidin-1-yl)propyl)benzo[d]thiazol-5-yl)piperidin-1-yl)-2-oxoacetamido)nicotinamide] | > 50 | < 5 | < 75 | A (“A” indicates an IC50 ratio greater than or equal to 30 fold) | < 100 |
| COc1ncc(NC(=O)C(=O)N2C[C@@H](C)CC[C@@H]2c2ccc3sc(C[C@H]4CCN(C)C[C@@H]4C)nc3c2)cc1C(N)=O (racemic) [Compound 64, 5-(2-((2R,5S)-2-(2-((1,3-dimethylpiperidin-4-yl)methyl)benzo[d]thiazol-5-yl)-5-methylpiperidin-1-yl)-2-oxoacetamido)-2-methoxynicotinamide] | > 50 | < 5 | < 75 | A (“A” indicates an IC50 ratio greater than or equal to 30 fold) | < 100 |
| CCc1cc(NC(=O)C(=O)N2C[C@@H](C)CC[C@@H]2c2ccc3sc(C4CN(C)CCN4C)nc3c2)cnc1N (mixture of isomers) [Compound 70, N-(6-amino-5-ethylpyridin-3-yl)-2-((2R,5S)-2-(2-(1,4-dimethylpiperazin-2-yl)benzo[d]thiazol-5-yl)-5-methylpiperidin-1-yl)-2-oxoacetamide] | > 50 | 5 to 50 | < 75 | B (“B” indicates an IC50 ratio greater than or equal to 15 fold but lower than 30 fold) | < 100 |
| COc1ncc(NC(=O)C(=O)N2C[C@@H](C)CC[C@@H]2c2ccc3sc(C4CN(C)C(C)(C)C4)nc3c2)cc1C(N)=O (mixture of isomers) [Compound 77, 2-methoxy-5-(2-((2R,5S)-5-methyl-2-(2-(1,5,5-trimethylpyrrolidin-3-yl)benzo[d]thiazol-5-yl)piperidin-1-yl)-2-oxoacetamido)nicotinamide] | > 50 | < 5 | < 75 | A (“A” indicates an IC50 ratio greater than or equal to 30 fold) | < 100 |
| [2H]C([2H])([2H])N1CCC(c2nc3cc([C@H]4CC[C@H](C)CN4C(=O)C(=O)Nc4cnc(OC)c(C(N)=O)c4)ccc3s2)CC1 [Compound 5, 2-methoxy-5-[[2-oxo-2-[(2R,5S)-5-methyl-2-[2-[1-(trideuteriomethyl)-4-piperidyl]-1,3-benzothiazol-5-yl]-1-piperidyl]acetyl]amino]pyridine-3-carboxamide] |  |  |  |  | < 100 |
| COc1ncc(NC(=O)C(=O)N2C[C@@H](C)CC[C@@H]2c2ccc3sc(C[C@H](C)N(C)C)nc3c2)cc1C(N)=O [Compound 98, 5-(2-((2R,5S)-2-(2-((S)-2-(dimethylamino)propyl)benzo[d]thiazol-5-yl)-5-methylpiperidin-1-yl)-2-oxoacetamido)-2-methoxynicotinamide] | > 50 | < 5 | < 75 | A (“A” indicates an IC50 ratio greater than or equal to 30 fold) |  |
| [2H][13C]([2H])([2H])N1CCC(c2nc3cc([C@H]4CC[C@H](C)CN4C(=O)C(=O)Nc4cnc(N)c(CC)c4)ccc3s2)CC1 [Compound 129, N-(6-amino-5-ethyl-3-pyridyl)-2-oxo-2-[(2R,5S)-5-methyl-2-[2-[1-(trideuterio(1^13C)methyl)-4-piperidyl]-1,3-benzothiazol-5-yl]-1-piperidyl]acetamide] |  |  |  |  | < 100 |
